# Where two headings read alike, the source gives them in different places.
# Assays:
# human μ-opioid receptor = molecular target: T1, human μ-opioid receptor (Homo sapiens, UniProt P35372); experiment: Human μ-opioid receptor radioligand assay ([3H]-DAMGO); assay type: binding
# T1 construct: expressed in transfected cells; host or cells: CHO-K1
# Summary of the method: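 Transfected CHO-K1 membranes (20 μg) incubated with 1 nM [3H]-DAMGO in 50 mM Tris-HCl, 5 mM MgCl2, pH 7.4, 60 min at 27 °C; non-specific binding with 10 μM naloxone. Test compound at five concentrations; bound radioactivity counted after filtration by scintillation.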
# [1] = molecular target: Human α2δ-1 subunit of Cav2.2 calcium channel (Homo sapiens, UniProt P54289); experiment: Human α2δ-1 subunit of Cav2.2 calcium channel assay ([3H]-Gabapentin); assay type: binding
# Summary of the method: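 α2δ-1-enriched membranes (2.5 μg) were incubated with 15 nM [3H]-gabapentin in 10 mM Hepes-KOH pH 7.4 for 60 min at 27 °C. Non-specific binding was defined with 10 μM pregabalin. Compounds were tested at five concentrations, with filtration and scintillation counting.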
# [2] = transfected CHO-K1 cell membranes, 1 nM [3H]-DAMGO, read-out: Binding μ (Ki)
# [3] = human α2δ-1 enriched membranes, 15 nM [3H]-Gabapentin, read-out: Binding α2δ-1 (Ki)
# T1 sequence (P35372 whole entry): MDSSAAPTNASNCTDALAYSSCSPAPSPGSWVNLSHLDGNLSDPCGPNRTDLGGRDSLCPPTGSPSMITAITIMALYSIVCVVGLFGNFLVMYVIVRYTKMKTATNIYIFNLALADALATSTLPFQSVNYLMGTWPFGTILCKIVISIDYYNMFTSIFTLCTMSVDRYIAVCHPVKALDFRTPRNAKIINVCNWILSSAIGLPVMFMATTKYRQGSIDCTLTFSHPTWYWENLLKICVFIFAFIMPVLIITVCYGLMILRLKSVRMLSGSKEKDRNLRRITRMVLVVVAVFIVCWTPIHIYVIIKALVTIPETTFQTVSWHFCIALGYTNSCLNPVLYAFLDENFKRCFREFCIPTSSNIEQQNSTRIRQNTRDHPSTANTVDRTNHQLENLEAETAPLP
# Human α2δ-1 subunit of Cav2.2 calcium channel, sequence (P54289 25-1103): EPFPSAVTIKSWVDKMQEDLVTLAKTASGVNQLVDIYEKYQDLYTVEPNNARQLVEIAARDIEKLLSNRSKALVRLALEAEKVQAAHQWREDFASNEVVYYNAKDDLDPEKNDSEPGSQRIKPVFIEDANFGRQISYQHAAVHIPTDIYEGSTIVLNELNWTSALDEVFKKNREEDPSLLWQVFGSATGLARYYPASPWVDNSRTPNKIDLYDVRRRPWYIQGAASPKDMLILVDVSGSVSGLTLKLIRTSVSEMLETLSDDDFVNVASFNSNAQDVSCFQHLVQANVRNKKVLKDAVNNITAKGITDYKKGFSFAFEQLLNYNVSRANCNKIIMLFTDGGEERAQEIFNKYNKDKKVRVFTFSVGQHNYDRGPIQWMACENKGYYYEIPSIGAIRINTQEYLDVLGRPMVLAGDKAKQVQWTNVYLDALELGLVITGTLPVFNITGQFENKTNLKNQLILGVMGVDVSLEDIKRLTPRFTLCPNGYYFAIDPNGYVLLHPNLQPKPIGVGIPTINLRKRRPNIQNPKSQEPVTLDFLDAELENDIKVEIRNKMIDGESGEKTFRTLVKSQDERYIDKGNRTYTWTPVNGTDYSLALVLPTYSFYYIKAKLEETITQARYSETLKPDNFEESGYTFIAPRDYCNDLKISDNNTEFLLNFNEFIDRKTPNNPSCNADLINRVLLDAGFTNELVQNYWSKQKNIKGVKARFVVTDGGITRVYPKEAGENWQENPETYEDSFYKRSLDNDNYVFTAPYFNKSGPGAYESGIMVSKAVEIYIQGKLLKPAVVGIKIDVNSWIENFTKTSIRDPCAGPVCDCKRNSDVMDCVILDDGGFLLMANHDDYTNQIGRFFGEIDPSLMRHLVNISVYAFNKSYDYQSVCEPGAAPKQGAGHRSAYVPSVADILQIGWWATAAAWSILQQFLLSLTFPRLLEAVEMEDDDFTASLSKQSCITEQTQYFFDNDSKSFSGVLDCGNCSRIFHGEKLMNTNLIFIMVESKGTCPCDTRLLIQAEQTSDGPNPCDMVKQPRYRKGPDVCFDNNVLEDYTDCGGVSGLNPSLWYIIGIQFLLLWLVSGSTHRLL
smiles,measurement,setting,value
"CNCCC(Oc1cc(C(N)=O)ccc1-n1nc2c(N(C)C)nnc(C)c2c1C)c1ccccc1 (stereo not shown) [Example 94, 4-(7-(dimethylamino)-3,4-dimethyl-2H-pyrazolo[3,4-d]pyridazin-2-yl)-3-(3-(methylamino)-1-phenylpropoxy)benzamide]",Ki,human μ-opioid receptor; [2],> 500 nM
same,Ki,[1]; [3],> 5000 nM
CNCCC(Oc1cc(C(=O)N(C)C)ccc1-n1nc2c(N(C)C)nnc(C)c2c1C)c1ccccc1 (stereo not shown) [Example 95],Ki,human μ-opioid receptor; [2],> 500 nM
same,Ki,[1]; [3],500 to 5000 nM
"CNCCC(Oc1ccc(C(=O)N(C)C)cc1-n1nc2c(N(C)C)nnc(C)c2c1C)c1ccccc1 (stereo not shown) [Example 96, 3-(7-(Dimethylamino)-3,4-dimethyl-2H-pyrazolo[3,4-d]pyridazin-2-yl)-N,N-dimethyl-4-(3-(methylamino)-1-phenylpropoxy)benzamide]",Ki,human μ-opioid receptor; [2],> 500 nM
same,Ki,[1]; [3],> 5000 nM
"CNCCC(Oc1ccc(O)cc1-n1nc2c(N(C)C)nnc(C)c2c1C)c1ccccc1 (stereo not shown) [Example 97, 3-(7-(Dimethylamino)-3,4-dimethyl-2H-pyrazolo[3,4-d]pyridazin-2-yl)-4-(3-(methylamino)-1-phenylpropoxy)phenol]",Ki,human μ-opioid receptor; [2],> 500 nM
same,Ki,[1]; [3],500 to 5000 nM
"CNCCC(Oc1cc(O)ccc1-n1nc2c(N(C)C)nnc(C)c2c1C)c1ccccc1 (stereo not shown) [Example 98, 4-(7-(dimethylamino)-3,4-dimethyl-2H-pyrazolo[3,4-d]pyridazin-2-yl)-3-(3-(methylamino)-1-phenylpropoxy)phenol]",Ki,human μ-opioid receptor; [2],> 500 nM
same,Ki,[1]; [3],500 to 5000 nM
"CNCC[C@H](Oc1ccccc1-n1nc2c(N(C)C)nnc(C)c2c1C)c1ccccc1 [Example 99, (S)-N,N,3,4-Tetramethyl-2-(2-(3-(methylamino)-1-phenylpropoxy)phenyl)-2H-pyrazolo[3,4-d]pyridazin-7-amine]",Ki,human μ-opioid receptor,100 to 500 nM
same,Ki,[1],500 to 5000 nM
"CNCC[C@@H](Oc1ccccc1-n1nc2c(N(C)C)nnc(C)c2c1C)c1ccccc1 [Example 100, (R)-N,N,3,4-tetramethyl-2-(2-(3-(methylamino)-1-phenylpropoxy)phenyl)-2H-pyrazolo[3,4-d]pyridazin-7-amine]",Ki,human μ-opioid receptor,> 500 nM
same,Ki,[1],500 to 5000 nM
"CCNCC[C@@H](Oc1ccccc1-n1nc2c(N(C)C)nnc(C)c2c1C)c1ccccc1 [Example 101, (R)-2-(2-(3-(Ethylamino)-1-phenylpropoxy)phenyl)-N,N,3,4-tetramethyl-2H-pyrazolo[3,4-d]pyridazin-7-amine]",Ki,human μ-opioid receptor,100 to 500 nM
same,Ki,[1],500 to 5000 nM
"CCNCC[C@H](Oc1ccccc1-n1nc2c(N(C)C)nnc(C)c2c1C)c1ccccc1 [Example 102, (S)-2-(2-(3-(ethylamino)-1-phenylpropoxy)phenyl)-N,N,3,4-tetramethyl-2H-pyrazolo[3,4-d]pyridazin-7-amine]",Ki,human μ-opioid receptor,> 500 nM
same,Ki,[1],500 to 5000 nM
"CNCC[C@H](Oc1ccccc1-n1nc2c(N(C)C)nnc(C)c2c1C)c1cccc(F)c1 [Example 103, (S)-2-(2-(1-(3-Fluorophenyl)-3-(methylamino)propoxy)phenyl)-N,N,3,4-tetramethyl-2H-pyrazolo[3,4-d]pyridazin-7-amine]",Ki,human μ-opioid receptor,> 500 nM
same,Ki,[1],< 500 nM
"CNCC[C@@H](Oc1ccccc1-n1nc2c(N(C)C)nnc(C)c2c1C)c1cccc(F)c1 [Example 104, (R)-2-(2-(1-(3-fluorophenyl)-3-(methylamino)propoxy)phenyl)-N,N,3,4-tetramethyl-2H-pyrazolo[3,4-d]pyridazin-7-amine]",Ki,human μ-opioid receptor,100 to 500 nM
same,Ki,[1],500 to 5000 nM
